Laboratory results taken from US20150225369A1, “DDR2 INHIBITORS FOR THE TREATMENT OF OSTEOARTHRITIS” (Merck Patent GmbH, priority 2012, published 2015).

Target: T1, HEK293 transfected with human DDR2 (Homo sapiens, UniProt Q16832)
T1 construct: expressed in transfected cells; host or cells: HEK293 (PLT460F_(DDR2)-P7-1)
T1 sequence (Q16832 22-855): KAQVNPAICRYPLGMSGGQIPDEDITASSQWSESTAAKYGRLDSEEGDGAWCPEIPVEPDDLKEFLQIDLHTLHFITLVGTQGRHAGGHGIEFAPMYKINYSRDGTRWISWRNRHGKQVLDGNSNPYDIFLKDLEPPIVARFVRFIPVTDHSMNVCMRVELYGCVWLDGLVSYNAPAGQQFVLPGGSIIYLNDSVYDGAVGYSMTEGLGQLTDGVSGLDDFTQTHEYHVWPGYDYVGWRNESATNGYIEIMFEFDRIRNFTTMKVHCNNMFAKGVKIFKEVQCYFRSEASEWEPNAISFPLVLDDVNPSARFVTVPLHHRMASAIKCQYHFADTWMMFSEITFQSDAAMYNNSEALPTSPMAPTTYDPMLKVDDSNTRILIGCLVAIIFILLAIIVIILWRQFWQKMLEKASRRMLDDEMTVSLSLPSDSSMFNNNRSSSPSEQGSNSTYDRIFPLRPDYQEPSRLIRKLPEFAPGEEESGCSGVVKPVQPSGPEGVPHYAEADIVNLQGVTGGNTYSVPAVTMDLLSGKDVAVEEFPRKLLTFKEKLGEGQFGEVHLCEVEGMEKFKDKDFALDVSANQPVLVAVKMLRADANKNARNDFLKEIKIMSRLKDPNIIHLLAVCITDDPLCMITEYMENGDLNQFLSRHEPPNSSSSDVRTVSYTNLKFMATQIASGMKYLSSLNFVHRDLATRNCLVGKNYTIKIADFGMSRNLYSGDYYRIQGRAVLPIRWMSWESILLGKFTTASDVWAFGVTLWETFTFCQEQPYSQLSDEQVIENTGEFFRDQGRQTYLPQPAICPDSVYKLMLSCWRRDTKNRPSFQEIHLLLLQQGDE
Assay: Phospho-DDR2 cellular assay (collagen II induced DDR2 phosphorylation, ELISA)
Format: cell-based
Conditions: cellular phospho-DDR2; read-out: IC50 [p-DDR2]
Procedure: Assays were performed in a 384 well plate format, using cell line HEK293 transfected with human DDR2 (PLT460F_(DDR2)-P7-1)
Cells were seeded at a density of 10'000 cells/well in 384well poly-D-lysine coated Black/clear plate (Cellcoat Greiner) and incubated in DMEM medium in the presence of 10% fetal bovine serum at 37° C., 5% CO2 for 48 h. Medium was replaced by serum-free medium and cells were incubated at 37° C., 5% CO2 for 8 h. Compound to be tested in 5% DMSO or 5% DMSO and 50 μg/ml of chicken collagen II were added and cells were incubated at 37° C., 5% CO2 for 16 h
Cells were rinsed with ice-cold PBS, lysed with lysis buffer (M-PER Thermo #78501) for 30 min at room temperature and centrifuged for 1 min at 1000 RPM. In parallel, White High binding 384 well plates (Corning) were coated with mouse anti-human DDR2 capture antibody (R&D Systems kit DuoSet IC Human phospho-DDR2 ELISA), overnight at RT.
An aliquot of cell lysate was transferred to the coated plates and incubated for 2 h at RT. Plates were washed and mouse anti-phospho-tyrosine detection antibody (R&D Systems kit DuoSet IC Human phospho-DDR2 ELISA) conjugated to horse radish peroxidase (HRP) was added for 2 h at RT. Plates were washed and chemiluminescent substrate for HRP (Thermo) was added for 15 min at RT. Luminescence was measured on a luminometer.

Compound | IC50 [nM]
CNC(=O)c1cc(Oc2ccc(CNC(=O)Nc3cc(Cl)cc(Cl)c3)cc2)ccn1 [compound 31] | 175
CNC(=O)c1cc(Oc2ccc(CNC(=O)Nc3cccc(S(C)(=O)=O)c3)cc2)ccn1 [compound 135, 4-{4-[3-(3-Methanesulfonyl-phenyl)-ureidomethyl]-phenoxy}-pyridine-2-carboxylic acid methylamide] | 390
CNC(=O)c1cc(Oc2ccc(CNC(=O)Nc3cc(C)c(Cl)cc3N(C)CCN(C)C)cc2)ccn1 [compound 162, 4-[4-(3-{4-Chloro-2-[(2-dimethylamino-ethyl)-methyl-amino]-5-methyl-phenyl}-ureidomethyl)-phenoxy]-pyridine-2-carboxylic acid methylamide] | 1600
CNC(=O)c1cc(Oc2ccc(CNC(=O)Nc3cc(C(F)(F)F)ccc3N3CCNCC3)cc2)ccn1 [compound 122, 4-{4-[3-(2-Piperazin-1-yl-5-trifluoromethyl-phenyl)-ureidomethyl]-phenoxy}-pyridine-2-carboxylic acid methylamide] | 135
CNC(=O)Cc1ccc(C(F)(F)F)cc1NC(=O)NCc1ccc(Oc2ccnc(C(=O)NC)c2)c(C)c1 [compound 200, 4-{2-Methyl-4-[3-(2-methylcarbamoylmethyl-5-trifluoromethyl-phenyl)-ureidomethyl]-phenoxy}-pyridine-2-carboxylic acid methylamide] | 455
CNC(=O)c1cc(Oc2ccc(CNC(=O)Nc3cc(C(F)(F)F)ccc3-n3cncn3)cc2F)ccn1 [compound 235, 4-{2-Fluoro-4-[3-(2-[1,2,4]triazol-1-yl-5-trifluoromethyl-phenyl)-ureidomethyl]-phenoxy}-pyridine-2-carboxylic acid methylamide] | 27
CNC(=O)c1cc(Oc2ccc(CNC(=O)Nc3cc(C(F)(F)F)ccc3-n3ccnc3)cc2C)ccn1 [compound 240, 4-{4-[3-(2-Imidazol-1-yl-5-trifluoromethyl-phenyl)-ureidomethyl]-2-methyl-phenoxy}-pyridine-2-carboxylic acid methylamide] | 2900
NCCNC(=O)c1cc(Oc2ccc(CNC(=O)Nc3ccc(Cl)c(C(F)(F)F)c3)cc2)ccn1 [compound 148, 4-{4-[3-(4-Chloro-3-trifluoromethyl-phenyl)-ureidomethyl]-phenoxy}-pyridine-2-carboxylic acid (2-amino-ethyl)-amide] | 785
CNC(=O)c1cc(Oc2ccc(CNC(=O)Nc3cc(C(F)(F)F)ccc3CN3CCNCC3)cc2)ccn1 [compound 192, 4-{4-[3-(2-Piperazin-1-ylmethyl-5-trifluoromethyl-phenyl)-ureidomethyl]-phenoxy}-pyridine-2-carboxylic acid methylamide] | 1150
CNC(=O)c1cc(Oc2ccc(CNC(=O)Nc3ccc(Cl)cc3Cl)cc2)ccn1 [compound 8] | 255
CNC(=O)c1cc(Oc2ccc(CNC(=O)Nc3ccc(C)cc3CO)cc2C)ccn1 [compound 196, 4-{4-[3-(2-Hydroxymethyl-4-methyl-phenyl)-ureidomethyl]-2-methyl-phenoxy}-pyridine-2-carboxylic acid methylamide] | 17600
CNC(=O)c1cc(Oc2ccc(CNC(=O)Nc3cc(C)c(Cl)cc3-n3cccc3)cc2)ccn1 [compound 219, 4-{4-[3-(4-Chloro-5-methyl-2-pyrrol-1-yl-phenyl)-ureidomethyl]-phenoxy}-pyridine-2-carboxylic acid methylamide] | 114
CNC(=O)c1cc(Oc2ccc(CNC(=O)Nc3cc(C(F)(F)F)ccc3N3CCNCC3)cc2C)ccn1 [compound 184, 4-{2-Methyl-4-[3-(2-piperazin-1-yl-5-trifluoromethyl-phenyl)-ureidomethyl]-phenoxy}-pyridine-2-carboxylic acid methylamide] | 76
CNC(=O)c1cc(Oc2ccc(CNC(=O)Nc3cccc(C(F)(F)F)c3)cc2F)ccn1 [compound 233, 4-{2-Fluoro-4-[3-(3-trifluoromethyl-phenyl)-ureidomethyl]-phenoxy}-pyridine-2-carboxylic acid methylamide] | 27
CNC(=O)c1cc(Oc2ccc(CNC(=O)Nc3cc(C(F)(F)F)ccc3-n3cncn3)cc2C)ccn1 [compound 202, 4-{2-Methyl-4-[3-(2-[1,2,4]triazol-1-yl-5-trifluoromethyl-phenyl)-ureidomethyl]-phenoxy}-pyridine-2-carboxylic acid methylamide] | 14
CNC(=O)c1cc(Oc2ccc(CNC(=O)Nc3ccc4nsnc4c3)cc2)ccn1 [compound 76, 4-{4-[(3-Benzo[1,2,5]thiadiazol-5-yl-ureido)-methyl]-phenoxy}-pyridine-2-carboxylic acid methylamide] | 670
CNC(=O)c1cc(Oc2ccc(CNC(=O)Nc3cc(C(F)(F)F)ccc3O)cc2C)ccn1 [compound 204, 4-{4-[3-(2-Hydroxy-5-trifluoromethyl-phenyl)-ureidomethyl]-2-methyl-phenoxy}-pyridine-2-carboxylic acid methylamide] | 38
CNC(=O)c1cc(Oc2ccc(CNC(=O)Nc3cc(C(F)(F)F)ccc3CC(N)=O)cc2)ccn1 [compound 209, 4-{4-[3-(2-Carbamoylmethyl-5-trifluoromethyl-phenyl)-ureidomethyl]-phenoxy}-pyridine-2-carboxylic acid methylamide] | 985
CNC(=O)c1cc(Oc2ccc(CNC(=O)Nc3cc(C(F)(F)F)ccc3CN3CCNCC3=O)cc2)ccn1 [compound 208, 4-(4-{3-[2-(2-Oxo-piperazin-1-ylmethyl)-5-trifluoromethyl-phenyl]-ureidomethyl}-phenoxy)-pyridine-2-carboxylic acid methylamide] | 855
CNC(=O)c1cc(Oc2ccc(CNC(=O)Nc3cc(Cl)c(Cl)cc3Cl)cc2)ccn1 [compound 23] | 100
CNC(=O)c1cc(Oc2ccc(CNC(=O)Nc3cc(OC)c(OC)c(OC)c3)cc2)ccn1 [compound 80, 4-{4-[3-(3,4,5-Trimethoxy-phenyl)-ureidomethyl]-phenoxy}-pyridine-2-carboxylic acid methylamide] | 750
CNC(=O)c1cc(Oc2ccc(CNC(=O)Nc3ccc(NC(C)=O)c(C(F)(F)F)c3)cc2)ccn1 [compound 241, 4-{4-[3-(4-Acetylamino-3-trifluoromethyl-phenyl)-ureidomethyl]-phenoxy}-pyridine-2-carboxylic acid methylamide] | 710
CNC(=O)c1cc(Oc2ccc(CNC(=O)Nc3ccc(Cl)c(Cl)c3)cc2)ccn1 [compound 3] | 195
CNC(=O)c1cc(Oc2ccc(CNC(=O)Nc3ccc(C)c(Cl)c3)cc2F)ccn1 [compound 234, 4-{4-[3-(3-Chloro-4-methyl-phenyl)-ureidomethyl]-2-fluoro-phenoxy}-pyridine-2-carboxylic acid methylamide] | 72
CNC(=O)c1cc(Oc2ccc(CNC(=O)Nc3cc(C)on3)cc2)ccn1 [compound 236, 4-{4-[3-(5-Methyl-isoxazol-3-yl)-ureidomethyl]-phenoxy}-pyridine-2-carboxylic acid methylamide] | 2050
CNC(=O)c1cc(Oc2ccc(CNC(=O)Nc3cccc(N(C)C)c3)cc2)ccn1 [compound 228, 4-{4-[3-(3-Dimethylamino-phenyl)-ureidomethyl]-phenoxy}-pyridine-2-carboxylic acid methylamide] | 1500
CNC(=O)c1cc(Oc2ccc(CNC(=O)Nc3cccc(S(C)(=O)=O)c3)cc2C)ccn1 [compound 154, 4-{4-[3-(3-Methanesulfonyl-phenyl)-ureidomethyl]-2-methyl-phenoxy}-pyridine-2-carboxylic acid methylamide] | 1250
CNC(=O)c1cc(Oc2ccc(CNC(=O)Nc3cc(C)c(Cl)cc3NC(C)=O)cc2C)ccn1 [compound 186, 4-{4-[3-(2-Acetylamino-4-chloro-5-methyl-phenyl)-ureidomethyl]-2-methyl-phenoxy}-pyridine-2-carboxylic acid methylamide] | 330
